# Assay results as given in paper PMC10661964 (Current Drug Metabolism, 2023).
# Values joined by “and” are separate entries in the source; they are usually repeats but may differ in a detail not shown here. Equal entries are not always repeated. Where two headings read alike, the source gives them in different places. Marks after values point to notes of the source that are not given here.
# Key:
# [1] = Mass balance and metabolite profiling in excreta after i.v. [14C]-nifurtimox in bile duct-cannulated (BDC) rats; assay type: in vivo, male Wistar rats; conditions: for administered dose secreted directly into the gut: gastrointestinal tract + feces
# Experimental: (§1) Animals were housed in suitable metabolism cages. […] Blood cells and plasma were separated by centrifugation. Plasma was stored at ≤-15°C prior to analysis. […] All biological samples were weighed immediately. […] The remaining carcass was also wet-weighed.
# [2] = system: CYP 2C19; test: CYP induction (mRNA and CYP activity); assay type: in vitro ADME, human
# Source text: (§2) The inhibition of cytochrome P450 (CYP) isoforms and a range of cellular transporters (except multidrug and toxin extrusion [MATE] proteins), as well as the induction of CYP isoforms were investigated using previously described methods.
# [3] = Mass balance and metabolite profiling in excreta after oral [14C]-nifurtimox in intact rats; conditions: for component excreted in urine, oral dosing: intact male Wistar rats, 2.5 mg/kg oral; for component excreted in urine, oral dosing / radioactivity excreted in urine / radioactivity excreted in feces: up to 120 h
# Experimental: (§3) After an adaption period, the animals were prepared for the study. Bile duct cannulation was performed on selected animals the day before their use in experiments.
# (§4) In a mass balance study (n = 5) and a PK study (n = 2 per timepoint), 2.5 mg/kg b.w. […] For i.v. administration, 2.5 mg/kg b.w. […] In an additional stability study, male Wistar rats (n = 3 per timepoint) were administered 2.5 mg/kg b.w. […] The total radioactivity concentration in the dosage form was confirmed by liquid scintillation counting (LSC).
# (§5) Animals were housed in suitable metabolism cages. Blood was collected from separate rats at 0.25, 0.5, 1, 1.5, 2, 3, 5, and 8 h post-dose and stored in lithium heparinized tubes. Blood cells and plasma were separated by centrifugation. Plasma was stored at ≤-15°C prior to analysis. […] At the end of the study, the cages were rinsed with water, and samples were collected. All biological samples were weighed immediately. Feces samples were homogenized with water to obtain a uniform radioactivity distribution. All samples were stored deep-frozen at ≤-15/-70°C before further processing. During the necropsy, selected organs and tissues were collected and wet-weighed. The remaining carcass was also wet-weighed. The carcass and all tissues were homogenized and stored at room temperature prior to processing for analysis. In the stability study, blood and urine were collected at 0.25 and 0.5 h post-dose. Plasma and urine were immediately frozen in liquid nitrogen and stored at -80°C to prevent degradation. The total radioactivity in samples and tissues was determined by LSC after appropriate sample preparation.
# (§6) Aliquots of individual urine or bile samples were pooled separately for each time interval by equal volume and analyzed using HPLC-LSC. Aliquots of individual feces samples were pooled separately for each time interval, ensuring that each aliquot contained the same amount of radioactivity. The pooled samples were extracted twice with a mixture of acetonitrile/water (80:20 v/v, 2 x 0.5 mL). The resulting suspensions were centrifuged (20,000 g, 5 min), and the supernatants were then combined for each time interval, concentrated, and subjected to HPLC-LSC.
# (§7) The amount of total radioactivity in urine, feces, bile, and tissues was determined by multiplying the volume or weight of the samples by the respective total radioactivity concentration. The amount of radioactivity recovered in the excreta (AE), cage wash, and tissues was compared with the administered radioactive dose to establish the radioactive balance. Cumulative excretion was calculated as the sum of the excretion for each collection interval. Arithmetic means and coefficients of variation (CV) were calculated for these percentages. During metabolite profiling, the concentration or amount of each analyte for each sample and timepoint or interval was calculated by multiplying the total radioactivity concentration or amount excreted of each sample with the percent area of each analyte obtained after HPLC-LSC separation.
# [4] = Plasma PK of total radioactivity, [14C]-nifurtimox and metabolites after oral dosing (HPLC-LSC); assay type: in vivo; conditions: male Wistar rats; for half-life / Tmax: rat; for half-life: read-out: t½ (converted)
# Experimental: as §1
# Aliquots of individual plasma samples were pooled separately for each timepoint by equal volume. For protein precipitation, pooled plasma was treated with a three-fold volume of acetonitrile. Samples were homogenized and precipitated by centrifugation (20,000 g, 5 min). Samples were concentrated and analyzed using high-performance liquid chromatography (HPLC) with off-line radioactivity detection by LSC (HPLC-LSC).
# [5] = biological target: CYP 2C19 (Homo sapiens, UniProt P33261); test: CYP inhibition with probe substrate; assay type: in vitro ADME; conditions: probe substrate mephenytoin
# Sequence of CYP 2C19 (Homo sapiens, UniProt P33261) (P33261 whole entry): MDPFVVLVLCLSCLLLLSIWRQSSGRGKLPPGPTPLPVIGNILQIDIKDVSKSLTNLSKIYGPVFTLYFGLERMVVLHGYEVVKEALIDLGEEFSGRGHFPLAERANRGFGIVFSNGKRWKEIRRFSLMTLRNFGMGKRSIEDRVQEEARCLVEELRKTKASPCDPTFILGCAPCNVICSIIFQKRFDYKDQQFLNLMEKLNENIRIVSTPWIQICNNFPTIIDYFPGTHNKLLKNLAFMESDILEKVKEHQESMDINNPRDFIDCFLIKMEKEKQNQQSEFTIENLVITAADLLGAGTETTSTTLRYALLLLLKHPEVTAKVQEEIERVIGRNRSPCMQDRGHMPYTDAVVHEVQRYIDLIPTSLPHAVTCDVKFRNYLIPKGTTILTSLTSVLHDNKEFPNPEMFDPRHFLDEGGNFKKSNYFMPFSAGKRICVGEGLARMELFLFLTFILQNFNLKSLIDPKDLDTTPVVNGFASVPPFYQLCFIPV
# Source text: as §2
# [6] = rat, in vivo, 2.5 mg/kg
# Experimental: as §3, §4, §5, §6, §7
# [7] = humans, dogs, and rats, oral administration; cited from earlier work
# [8] = within 2-3 days of oral or i.v. dosing in rats and dogs; cited from earlier work
# [9] = cited from earlier work
# [10] = in vitro; conditions: rat, plasma
# [11] = Experimental: One aliquot of a pooled urine sample taken at 0.25 h post-dose was analyzed immediately using HPLC-LSC. Further aliquots were analyzed after storage for 24 h at room temperature. […] After incubation for 22.5 h at 37°C with shaking, incubations were terminated by the addition of acetonitrile, then extracted (three times with 2 mL acetonitrile for 30 min) and centrifuged (1726 g, 3 min). The combined supernatant was analyzed directly using HPLC-LSC.
# [12] = rats, assuming oral bioavailability of 90% and fu 62.1%
# [13] = Stability study: metabolite profiles in snap-frozen plasma and urine at early timepoints after oral [14C]-nifurtimox; assay type: in vivo, male Wistar rats; conditions: for share of sample radioactivity in plasma / share of sample radioactivity in urine: oral 2.5 mg/kg, snap-frozen
# Experimental: as §1
# The combined supernatant was analyzed directly using HPLC-LSC.
# [14] = human, estimation accounting for GFR, fu (57.6%), and AUC
# [15] = BDC male Wistar rats, 2.5 mg/kg i.v., up to 24 h
# [16] = single oral 2.5 mg/kg [14C]-nifurtimox, pooled plasma
# [17] = 30-min preincubation, read-out: Pre- IC50 (+ NADPH)
# [18] = coincubation, read-out: Co- IC50
# [19] = total radioactivity, i.v. 2.5 mg/kg, BDC rats
# [20] = total radioactivity, i.v. 2.5 mg/kg, BDC rats, 24 h
# [21] = total radioactivity, i.v. 2.5 mg/kg, BDC rats, 24 h, listed as [^14C]-nifurtimox, 2.5 mg/kg
# [22] = total radioactivity, i.v. 2.5 mg/kg, BDC rats, 24 h, listed as [14C]-nifurtimox, 2.5 mg/kg
# [23] = total radioactivity, oral 2.5 mg/kg, intact rats
# [24] = total radioactivity, oral 2.5 mg/kg, intact rats, listed as [^14C]-nifurtimox, 2.5 mg/kg
# [25] = oral, Medenwald et al. and seven healthy volunteers
smiles,measurement,setting,value
CC1CS(=O)(=O)CCN1n1cc(SCC(N)C(=O)O)ccc1=O (stereo not drawn) [M-4],"component excreted in bile, i.v. dosing",[1]; [15],0.968 % of the administered dose
same,concentration up to which no induction (mRNA and CYP activity),[2],up to 80000 µg/L
same,"component excreted in urine, oral dosing",[3],no M-4 was detected
same,%AUC(0-8) (relative to total radioactivity AUC(0-8)),"[4]; oral 2.5 mg/kg, M-2+M-3, M-4, M-5 are estimates based on AUC(0-tn), 2.5 mg/kg",2.42^c %
same,AUC,[4]; [16],791 µg-eq*h/L
same,AUC(0-tn),[4]; [16],107 µg-eq*h/L
same,Cmax,[4]; [16],48.3 µg-eq/L
same,tn (time of last quantifiable concentration),[4]; [16],3 h
same,half-life,"[4]; single oral 2.5 mg/kg [14C]-nifurtimox, plasma, interval up to 8 h",12.3 h
same,Tmax,[4]; [16],0.5 h
same,IC50,[5]; [17],> 20 µM
same,IC50,[5]; [18],> 20 µM
same,TDI (time-dependent inhibition),[5],No
CC1CS(=O)(=O)CCN1N (stereo not drawn) [M-6],concentration up to which no induction (mRNA and CYP activity),[2],up to 90000 µg/L
same,IC50,[5]; [17],> 100 µM
same,IC50,[5]; [18],> 100 µM
same,TDI (time-dependent inhibition),[5],No
"CC1CS(=O)(=O)CCN1/N=C/c1ccc([N+](=O)[O-])o1 (stereo not drawn) [Nifurtimox, (E)-N-(3-methyl-1,1-dioxo-1,4-thiazinan-4-yl)-1-(5-nitrofuran-2-yl) methanimine, reference compound]","component excreted in feces, oral dosing",[6],No unchanged drug was detected
same,"component excreted in urine, i.v. dosing",[1]; [15],0.847 % of the administered dose
same,"component excreted in bile, i.v. dosing","[1]; BDC male Wistar rats, 2.5 mg/kg i.v., up to 24 h, 2.5 mg/kg",0.560 % of the administered dose
same,"component excreted in bile, i.v. dosing","[1]; BDC male Wistar rats, 2.5 mg/kg i.v., up to 24 h, listed as nifurtimox, 2.5 mg/kg",0.6 % of the administered dose
same,administered dose excreted in bile within 24 h,[1]; [19],17.7%
same,administered dose excreted in urine within 24 h,[1]; [19],49.6%
same,recovery of administered radioactivity at 24 h,[1]; [19],94.2%
same,dose in residues (body excluding the GIT),[1]; [20],17.6%
same,dose in the cage wash,[1]; [20],2.48%
same,administered dose secreted directly into the gut,"[1]; total radioactivity, i.v. 2.5 mg/kg, BDC rats, 24 h, 2.5 mg/kg",< 7%
same,administered dose secreted directly into the gut,[1]; [21],6.9%
same,dose excreted in feces,[1]; [22],2.45%
same,dose present in the gastrointestinal tract including contents,[1]; [22],4.45%
same,dose excreted in feces,[1]; [21],2.5%
same,dose present in the gastrointestinal tract including contents,[1]; [21],4.5%
same,unlabeled nifurtimox excreted in urine,[7],no more than 0.5 % of the administered dose
same,"component excreted in urine, oral dosing",[3]; 2.5 mg/kg,0.117 % of the administered dose
same,"component excreted in urine, oral dosing","[3]; listed as [^14C]-nifurtimox, 2.5 mg/kg",0.1 % of the administered dose
same,"component excreted in urine, oral dosing","[3]; listed as nifurtimox, 2.5 mg/kg",< 1 % of the administered dose
same,share of sample radioactivity in urine,"[3]; pooled urine 0-8 h post-dose, oral 2.5 mg/kg",0.3 % of sample radioactivity
same,"total recovery including excreta, residues, and cage wash","[3]; total radioactivity, 120 h after oral dosing",97.3%
same,administered radioactivity excreted within 24 h,[3]; [23],approximately 86%
same,radioactivity excreted within 120 h (urine + feces),[3]; [23],92.4 % of dose
same,radioactivity excreted in urine,"[3]; total radioactivity, oral 2.5 mg/kg, intact rats, 2.5 mg/kg",48.6 % of dose
same,radioactivity excreted in feces,"[3]; total radioactivity, oral 2.5 mg/kg, intact rats, listed as [14C]-nifurtimox, 2.5 mg/kg",43.8 % of dose
same,radioactivity excreted in feces,[3]; [24],43.8 % of dose and 49 % of dose
same,radioactivity excreted in urine,[3]; [24],48.6 % of dose and 44 % of dose
same,administered radioactivity detected in urine,[8],40-50%
same,"tmax, patients who had eaten before dosing",[9]; Phase 1 food-effect PK study,4 h
same,Tmax,[9]; [25],2 to 3 h
same,average elimination half-life (t½),[9]; [25],approximately 3 hours
same,AUC greater in fed compared to fasting patients,"[9]; same nifurtimox dose, Phase 1 food-effect study",70%
same,fraction unbound,[10],0.621
same,stability in aqueous control without feces,"[11]; 8.8 µM, 37°C, 22.5 h, anaerobic, data not shown",no degradation
same,stability in rat feces,"[11]; 8.8 µM, aqueous suspension of fresh rat feces, 37°C, 22.5 h, anaerobic",unstable in rat feces
same,stability in rat urine,[11]; pooled 0.25 h post-dose urine reanalyzed after storage at room temperature for 24 h,undetectable
same,theoretical excretion based on glomerular filtration rate,[12],23 % of the dose
same,share of sample radioactivity in plasma,[13]; 0.25 h post-dose,81.5 % of sample radioactivity
same,share of sample radioactivity in urine,[13]; 0.25 h post-dose,11 % of sample radioactivity
same,share of sample radioactivity in plasma,[13]; 0.5 h post-dose,72.5 % of sample radioactivity
same,share of sample radioactivity in urine,[13]; 0.5 h post-dose,4 % of sample radioactivity
same,stability in plasma,[13]; authors' conclusion from plasma profiles,appears to be stable in plasma
same,dose expected to be excreted unchanged in urine,[14],approximately 10%
same,t½,"[4]; single oral 2.5 mg/kg [14C]-nifurtimox, plasma, interval up to 8 h, 2.5 mg/kg",1.44 h
same,AUC,[4]; [16],1730 µg-eq*h/L
same,AUC(0-8),[4]; [16],1680 µg-eq*h/L
same,AUC(0-tn),[4]; [16],1570 µg-eq*h/L
same,Cmax,[4]; [16],755 µg-eq/L
same,tn (time of last quantifiable concentration),[4]; [16],5 h
same,half-life,"[4]; male, Wistar, plasma, po, 2.5 mg/kg, single oral 2.5 mg/kg [14C]-nifurtimox, plasma, interval up to 8 h",1.4 h
same,Tmax,[4]; [16],0.5 h
same,tmax of radioactivity,"[4]; total radioactivity, oral 2.5 mg/kg",0.5 h
